This passage reports MED results from ChEMBL document CHEMBL3352364 (Bioorg Med Chem Lett, 2014).

The species entered for data set [1] is Rattus norvegicus. To be noted: in vivo, ip.
Description: Toxicity in ip dosed Sprague-Dawley rat assessed as catalepsy by crossed-legs position test
For data set [2], the species on record is Rattus norvegicus. Conditions: in vivo, ip. The source holds these as a separate data set.
Description: Toxicity in ip dosed Sprague-Dawley rat assessed as catalepsy by Bar test

Regarding `OC1(c2ccc(Cl)cc2)CC2CCC(C1)N2CCCSc1cccc(F)c1` (centres undefined), the MED in the data set listed under Rattus norvegicus [1] and in the data set listed under Rattus norvegicus [2] was 12.7 mg/kg in each case.

On to `OC1(c2ccc(Cl)cc2)CC2CCC(C1)N2CCCSc1ccc(F)cc1` (centres undefined), for which the figures for the MED in the data set filed under Rattus norvegicus [1] and in the data set filed under Rattus norvegicus [2] were 0.964 mg/kg and 0.578 mg/kg, respectively.
